Each structure is given as a SMILES string.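 96-well plates; 48 h exposure; 5 concentrations. Endpoints by linear interpolation between flanking doses. Not reached: highest tested concentration assigned. GI50 marks 50% less growth.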 Calls of active or inactive are those of the source. Cut-off read from the data, not from the text of the source: active = GI50 up to about 1.1 µM and inactive = higher.

This is an account of results in ChEMBL document CHEMBL1201862, “PubChem BioAssay data set” (2004).

Some test systems named below: HL-60; U-251; A549; HCT-116; OVCAR-5; T47D; OVCAR-4; MCF7; HT-29; MDA-MB-231; Hs-578T; CCRF-CEM; SK-MEL-28; SNB-75; SN12C; SK-MEL-5; IGROV-1; MDA-MB-435; NCI-H522; DU-145.
Experiment in all cases: NCI-60 cell line screen, 48 h

Take `CC1=NN(C(=O)c2ccncc2)C(=O)C1/N=N/c1ccc2ccccc2c1` (stereo not given): the GI50 is 1.71 µM (inactive) in the assay on HL-60; > 91 µM (inactive) with U-251; 28.1 µM (inactive) in the assay with A549; 32.7 µM (inactive) with HCT-116; > 60.7 µM (inactive) with OVCAR-5; > 100 µM (inactive) in the assay with T47D. Besides, the GI50 was > 100 µM (inactive) in the assay on OVCAR-4; 5.32 µM (inactive) with MCF7; 11.7 µM (inactive) in the assay with HT-29; 20.8 µM (inactive) in the assay on MDA-MB-231; 5.2 µM (inactive) with Hs-578T; 64.6 µM (inactive) with CCRF-CEM. In addition, the GI50 with SK-MEL-28 is > 100 µM (inactive); with SNB-75, > 100 µM (inactive); with SN12C, > 100 µM (inactive); in the assay on SK-MEL-5 it was 19.2 µM (inactive); with IGROV-1 it was 22.9 µM (inactive); with MDA-MB-435, 3.4 µM (inactive). Further, the GI50 in the assay with NCI-H522 is > 100 µM (inactive); in the assay with DU-145, > 73.5 µM (inactive).

As to `O=P(O)(O)OP(=O)(O)O`, the GI50 with HL-60, with U-251, in the assay with A549, with HCT-116, in the assay on OVCAR-5 and in the assay with T47D was > 100 µM (inactive) throughout. In addition, the GI50 in the assay on OVCAR-4, with MCF7, with HT-29, in the assay with MDA-MB-231, in the assay with Hs-578T and in the assay on CCRF-CEM was > 100 µM (inactive) throughout. For the same compound, the GI50 in the assay with SK-MEL-28, in the assay with SNB-75, in the assay on SN12C, with SK-MEL-5, in the assay on IGROV-1 and in the assay on MDA-MB-435 was > 100 µM (inactive) each time. The GI50 with NCI-H522 and in the assay with DU-145 was > 100 µM (inactive) each time.

On to `Cn1c(SCc2ccc([N+](=O)[O-])cc2)nnc1C12CC3CC(CC(C3)C1)C2`, for which the GI50 in the assay with HL-60, with U-251, with A549, in the assay on HCT-116, in the assay with OVCAR-5 and with T47D was > 10 µM (inactive) in each case. In addition, the GI50 with OVCAR-4, in the assay on MCF7, in the assay on HT-29, in the assay on MDA-MB-231, with Hs-578T and in the assay on CCRF-CEM was > 10 µM (inactive) in each case. Moreover, the GI50 in the assay with SK-MEL-28 is > 10 µM (inactive); in the assay with SNB-75, 4.66 µM (inactive); with SN12C, > 10 µM (inactive); in the assay on SK-MEL-5, > 10 µM (inactive); with IGROV-1 it was > 10 µM (inactive); with MDA-MB-435, > 10 µM (inactive). Besides, the GI50 in the assay on NCI-H522 and in the assay with DU-145 was > 10 µM (inactive) each time.

As to `Cc1cc(S(=O)(=O)Nc2nnc3c4ccccc4cnn23)c(S)cc1Cl`, the GI50 in the assay with HL-60 is > 100 µM (inactive); in the assay on U-251, 29.9 µM (inactive); with A549, 70.5 µM (inactive); with HCT-116, 58.2 µM (inactive); in the assay on OVCAR-5, > 100 µM (inactive); in the assay with T47D, 74.1 µM (inactive). The GI50 in the assay on OVCAR-4 is > 100 µM (inactive); in the assay with MCF7 it was > 67.3 µM (inactive); in the assay on HT-29 it was > 100 µM (inactive); in the assay on MDA-MB-231, > 93.3 µM (inactive); in the assay on Hs-578T it was 40.1 µM (inactive); in the assay on CCRF-CEM, > 100 µM (inactive). Moreover, the GI50 in the assay with SK-MEL-28 is > 100 µM (inactive); in the assay with SNB-75 it was 69.8 µM (inactive); in the assay on SN12C it was > 100 µM (inactive); in the assay with SK-MEL-5, > 81.5 µM (inactive); with IGROV-1, 39.2 µM (inactive); in the assay on MDA-MB-435, > 84.3 µM (inactive). Besides, the results for the GI50 in the assay with NCI-H522 and with DU-145 were > 88.5 µM (inactive) and 61.9 µM (inactive), respectively.

For `CN(C)CC1CN(C(=O)Nc2ccccc2)C(=N)O1` (stereo not given), the GI50 in the assay with HL-60, with U-251, in the assay with A549, in the assay on HCT-116, in the assay on OVCAR-5 and in the assay on T47D was > 100 µM (inactive) in each case. Besides, the GI50 with OVCAR-4, in the assay on MCF7, with HT-29, with MDA-MB-231, in the assay with Hs-578T and with CCRF-CEM was > 100 µM (inactive) in each case. In addition, the GI50 in the assay with SK-MEL-28, in the assay on SNB-75, in the assay with SN12C, in the assay with SK-MEL-5, with IGROV-1 and in the assay on MDA-MB-435 was > 100 µM (inactive) throughout. Besides, the GI50 in the assay with NCI-H522 is > 100 µM (inactive); in the assay with DU-145, 38.2 µM (inactive).

For the compound `O=C(NC(c1ccccc1)C(O)C(=O)OCc1ccc2c(c1)C(=O)c1ccccc1C2=O)c1ccccc1` (stereo not given), the GI50 in the assay with HL-60 is > 83.6 µM (inactive); in the assay with U-251, 5.46 µM (inactive); with A549, 9.91 µM (inactive); with HCT-116 it was 3.94 µM (inactive); in the assay on OVCAR-5 it was 58.7 µM (inactive); with T47D, 15.2 µM (inactive). In addition, the GI50 in the assay on OVCAR-4 is 2.2 µM (inactive); with MCF7, 17.7 µM (inactive); in the assay with HT-29, 61.4 µM (inactive); in the assay on MDA-MB-231, 15 µM (inactive); in the assay with Hs-578T, 34.8 µM (inactive); in the assay with CCRF-CEM, 77.3 µM (inactive). Further, the GI50 is 28.1 µM (inactive) in the assay with SK-MEL-28; 4.37 µM (inactive) with SNB-75; 8.69 µM (inactive) in the assay with SN12C; 13.6 µM (inactive) in the assay with SK-MEL-5; 18.5 µM (inactive) with IGROV-1; 34.4 µM (inactive) in the assay with MDA-MB-435. Further, the figures for the GI50 in the assay with NCI-H522 and in the assay with DU-145 were 14.8 µM (inactive) and 54.7 µM (inactive), respectively.

In the case of `C[C@H](CCC(=O)NCCS(=O)(=O)O)[C@H]1CC[C@H]2[C@@H]3CC[C@@H]4C[C@H](O)CC[C@]4(C)[C@H]3CC[C@]12C`, the GI50 with HL-60, in the assay with U-251, in the assay with A549, in the assay with HCT-116, in the assay on OVCAR-5 and in the assay on T47D was > 100 µM (inactive) each time. For the same compound, the GI50 in the assay with OVCAR-4, in the assay with MCF7, with HT-29, with MDA-MB-231, in the assay with Hs-578T and with CCRF-CEM was > 100 µM (inactive) throughout. For the same compound, the GI50 with SK-MEL-28, in the assay on SNB-75, in the assay with SN12C, in the assay on SK-MEL-5, in the assay with IGROV-1 and in the assay on MDA-MB-435 was > 100 µM (inactive) in each case. Moreover, the GI50 in the assay with NCI-H522 and in the assay with DU-145 was > 100 µM (inactive) in each case.

Regarding `COc1ccc(C2SC(=N)Nc3c2c(C)nn3C(=O)c2ccc(Cl)cc2)cc1` (stereo not given), the GI50 in the assay with HL-60, in the assay with U-251, in the assay on A549, in the assay with HCT-116, in the assay with OVCAR-5 and with T47D was > 10 µM (inactive) throughout. The GI50 with OVCAR-4, with MCF7, with HT-29, in the assay on MDA-MB-231, in the assay on Hs-578T and in the assay with CCRF-CEM was > 10 µM (inactive) in each case. Also, the GI50 with SK-MEL-28, with SNB-75, with SN12C, in the assay on SK-MEL-5, in the assay on IGROV-1 and in the assay on MDA-MB-435 was > 10 µM (inactive) in each case. Also, the GI50 in the assay on NCI-H522 and with DU-145 was > 10 µM (inactive) in each case.

Turning to `O=CC1C(Cl)=Nc2nc3ccccc3n2C1c1ccccc1` (stereo not given), the GI50 with HL-60 was 20 µM (inactive); in the assay on U-251 it was 18.2 µM (inactive); in the assay with A549, 23.8 µM (inactive); in the assay with HCT-116 it was 22.1 µM (inactive); with OVCAR-5, 23.2 µM (inactive); in the assay with T47D, 17.1 µM (inactive). For the same compound, the GI50 with OVCAR-4 was 15.2 µM (inactive); in the assay with MCF7, 20.4 µM (inactive); in the assay with HT-29 it was 19.1 µM (inactive); with MDA-MB-231, 17.1 µM (inactive); in the assay on Hs-578T, 0.741 µM (active); in the assay with CCRF-CEM, 12.4 µM (inactive). In addition, the GI50 was 14.3 µM (inactive) with SK-MEL-28; 17 µM (inactive) in the assay on SNB-75; 20.7 µM (inactive) in the assay with SN12C; 19.6 µM (inactive) in the assay with SK-MEL-5; 15.9 µM (inactive) in the assay with IGROV-1; 38.5 µM (inactive) in the assay with MDA-MB-435. Also, the GI50 is 14.3 µM (inactive) with NCI-H522 and 16 µM (inactive) with DU-145.

`O=C(O)C1=C(C(=O)O)N(c2ccncc2)C(c2ccco2)=CC1c1ccccc1[N+](=O)[O-]` (stereo not given): the GI50 in the assay on HL-60 was 2.88 µM (inactive); in the assay on U-251, 4.92 µM (inactive); in the assay on A549, 16.2 µM (inactive); in the assay on HCT-116, 1.83 µM (inactive); with OVCAR-5, 15 µM (inactive); in the assay with T47D, 7.82 µM (inactive). In addition, the GI50 is 13 µM (inactive) with OVCAR-4; 2.65 µM (inactive) with MCF7; 2.18 µM (inactive) with HT-29; 14.2 µM (inactive) in the assay with MDA-MB-231; 16.7 µM (inactive) in the assay with Hs-578T; 2.69 µM (inactive) with CCRF-CEM. Further, the GI50 with SK-MEL-28 was 16.2 µM (inactive); in the assay on SNB-75, 7.4 µM (inactive); with SN12C, 13.1 µM (inactive); in the assay on SK-MEL-5, 5.82 µM (inactive); in the assay on IGROV-1, 1.85 µM (inactive); in the assay on MDA-MB-435, 13.5 µM (inactive). Besides, the GI50 was 1.77 µM (inactive) in the assay with NCI-H522 and 12.1 µM (inactive) in the assay on DU-145.
